Measurements as given in patent US9113629B2, “4-amino-6-(4-substituted-phenyl)-picolinates and 6-amino-2-(4-substituted-phenyl)-pyrimidine-4-carboxylates and their use as herbicides” (DOW AGROSCIENCES LLC, priority 2013, dated 2015).
Where two headings read alike, the source gives them in different places.

Experiments:
[1] = test system: Key Broadleaf Weed and Crop Species; experiment: Post-emergent Test II herbicidal activity (Table 5); format: in vivo; conditions: post-emergence, 336 h, 14 days after application; for pest or weed control at 70 g/ha: application rate 70 g ai/ha; for pest or weed control at 140 g/ha: application rate 140 g ai/ha
Summary of the method: (§1)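 Percent injury, 0 (none) to 100 (complete kill), was judged visually 14 d after spraying young plants at the first or second true leaf stage with compound in an acetone/DMSO aqueous carrier at 187 L/ha. Plants were kept in a greenhouse at 23–29 °C by day.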

[2] = test system: Key Grass and Sedge Weeds as well as Grass Crops; experiment: Post-emergent Test II herbicidal activity (Table 6); format: in vivo; conditions: post-emergence, 336 h; for pest or weed control at 70 g/ha: 70 g ai/ha; for pest or weed control at 140 g/ha: 140 g ai/ha
Summary of the method: as §1

[3] = ABUTH: velvetleaf (Abutilon theophrasti), read-out: Visual Growth Reduction (%) 14 Days After Application, ABUTH
[4] = AMARE: redroot pigweed (Amaranthus retroflexus), read-out: Visual Growth Reduction (%) 14 Days After Application, AMARE
[5] = BRSNN: oilseed-rape, canola (Brassica napus), read-out: Visual Growth Reduction (%) 14 Days After Application, BRSNN
[6] = CHEAL: lambsquarters (Chenopodium album), read-out: Visual Growth Reduction (%) 14 Days After Application, CHEAL
[7] = EPHHL: wild poinsettia (Euphorbia heterophylla), read-out: Visual Growth Reduction (%) 14 Days After Application, EPHHL
[8] = HELAN: sunflower (Helianthus annuus), read-out: Visual Growth Reduction (%) 14 Days After Application, HELAN
[9] = VIOTR: wild pansy (Viola tricolor), read-out: Visual Growth Reduction (%) 14 Days After Application, VIOTR
[10] = CYPES: yellow nutsedge (Cyperus esculentus), read-out: Visual Growth Reduction (%) 14 Days After Application, CYPES
[11] = DIGSA: crabgrass (Digitaria sanguinalis), read-out: Visual Growth Reduction (%) 14 Days After Application, DIGSA
[12] = ECHCG: barnyardgrass (Echinochloa crus-galli), read-out: Visual Growth Reduction (%) 14 Days After Application, ECHCG
[13] = ORYSA: rice (Oryza sativa), crop, read-out: Visual Growth Reduction (%) 14 Days After Application, ORYSA
[14] = SETFA: giant foxtail (Setaria faberi), read-out: Visual Growth Reduction (%) 14 Days After Application, SETFA
[15] = SORVU: grain sorghum (Sorghum vulgare), read-out: Visual Growth Reduction (%) 14 Days After Application, SORVU
[16] = TRZSS (wheat, Triticum aestivum), crop, read-out: Visual Growth Reduction (%) 14 Days After Application, TRZSS
[17] = ZEAMX: maize, corn (Zea mays), crop, read-out: Visual Growth Reduction (%) 14 Days After Application, ZEAMX

## COC(=O)c1nc(-c2ccc(Br)cc2)cc(N)c1Cl [Compound 67]
[1]; [3]
  pest or weed control at 70 g/ha: 95 to 100%
  pest or weed control at 140 g/ha: 95 to 100%
[1]; [4]
  pest or weed control at 70 g/ha: 95 to 100%
  pest or weed control at 140 g/ha: 95 to 100%
[1]; [5]
  pest or weed control at 70 g/ha: 0 to 29%
  pest or weed control at 140 g/ha: 60 to 74%
[1]; [6]
  pest or weed control at 70 g/ha: 95 to 100%
  pest or weed control at 140 g/ha: 95 to 100%
[1]; [7]
  pest or weed control at 70 g/ha: 95 to 100%
  pest or weed control at 140 g/ha: 95 to 100%
[1]; [8]
  pest or weed control at 70 g/ha: 85 to 94%
  pest or weed control at 140 g/ha: 95 to 100%
[1]; [9]
  pest or weed control at 70 g/ha: 0 to 29%
  pest or weed control at 140 g/ha: 0 to 29%
[2]; [10]
  pest or weed control at 70 g/ha: 95 to 100%
  pest or weed control at 140 g/ha: 95 to 100%
[2]; [11]
  pest or weed control at 70 g/ha: 60 to 74%
  pest or weed control at 140 g/ha: 75 to 84%
[2]; [12]
  pest or weed control at 70 g/ha: 85 to 94%
  pest or weed control at 140 g/ha: 95 to 100%
[2]; [13]
  pest or weed control at 70 g/ha: 0 to 29%
  pest or weed control at 140 g/ha: 0 to 29%
[2]; [14]
  pest or weed control at 70 g/ha: 0 to 29%
  pest or weed control at 140 g/ha: 0 to 29%
[2]; [15]
  pest or weed control at 70 g/ha: 85 to 94%
  pest or weed control at 140 g/ha: 85 to 94%
[2]; [16]
  pest or weed control at 70 g/ha: 0 to 29%
  pest or weed control at 140 g/ha: 0 to 29%
[2]; [17]
  pest or weed control at 70 g/ha: 0 to 29%
  pest or weed control at 140 g/ha: 45 to 59%
